Columns and labels:
MCF-7 = assay: MTT cytotoxicity assay; format: cell-based, human; details: MCF-7, MTT; for IC50: 24 h incubation time
Protocol: (§1) To test the biological effects of the Cu(II) complexes and the ligands on human cancer cells, DU-145 prostate, A549 lung, and MCF-7 breast adenocarcinoma cells, as well as the multidrug-resistant MCF-7 KCR breast cancer cells were utilized. All the cell lines were maintained in RPMI-1640 media (Biosera, Nuaille, France) complemented with 10% fetal bovine serum (FBS), 2 mM L-glutamine, 0.01% streptomycin and 0.005% penicillin, (Biosera, Nuaille, France) and were cultured under standard conditions in a 37 °C incubator at 5% CO2 and 95% humidity. The cell lines were originally obtained from ATCC.
(§2) The effect of the complexes and of their ligands alone on the viability (on the metabolic activity) of human cancer cells was assessed by MTT assay. The tested compounds were dissolved in 90% (v/v) DMSO/H2O at 10 mM concentration. Equimolar solutions of the ligand CuCl2 salt were used for the cytotoxicity assays. The metal salts without ligands were also tested. For this, 1 × 10^4 cells/well were seeded into 96-well plates and left to grow overnight. On the following day, cells were exposed to increasing concentrations of each compound (0; 2.5; 5; 10; 15; 20 µM). After a 24 h incubation, cells were washed with PBS buffer and then incubated with 0.5 mg/mL MTT (Sigma-Aldrich, St Louis, Missouri, MO, USA) for 1 h at 37 °C. The formazan crystals were solubilized in DMSO (Molar Chemicals, Halásztelek, Hungary), and the absorbance of samples was determined at 570 nm using a Synergy HTX plate reader (BioTek, Winooski, Vermont, VT, USA). Absorption corresponding to the untreated control samples was considered as 100%.

DU-145 = assay: MTT cytotoxicity assay; format: cell-based, human; details: DU-145, MTT; for IC50: 24 h incubation time
Protocol: as §1, §2

A549 = assay: MTT cytotoxicity assay; format: cell-based, human; details: for IC50: 24 h incubation time
Protocol: as §1, §2

MCF-7 KCR = assay: MTT cytotoxicity assay; format: cell-based, human
Protocol: as §1, §2

S. aureus ATCC 25928 = assay: MIC determination; format: cell-based, Staphylococcus aureus; details: Gram-positive S. aureus ATCC 25928, Mueller Hinton Broth
Protocol: (§3) Klebsiella pneumoniae (ATCC 49619), Escherichia coli (ATCC 25922), Staphylococcus aureus (ATCC 25928) and Enterococcus faecalis (ATCC 29212) strains were used as Gram-negative and Gram-positive bacterial cultures. The stock solutions of the tested compounds (dissolved in 90% (v/v) DMSO/H2O at 10 mM concentration) were diluted in 100 μL of Mueller Hinton Broth, and then two-fold serial dilutions were performed. As a starting point, 100 μM concentration of the compounds was used. Then, 10^−4 dilution of an overnight bacterial culture in 100 μL of medium was added to each well, with the exception of the medium control wells. Minimum inhibitory concentration (MIC) values of compounds were determined according to our previous work.

E. faecalis ATCC 29212 = assay: MIC determination; format: cell-based, Enterococcus faecalis; details: Gram-positive E. faecalis ATCC 29212, Mueller Hinton Broth
Protocol: as §3

[1] = cyclic voltammetry of Cu(II)-(T)SC (1:1) systems; format: physicochemical; details: 90% (v/v) DMSO/H2O, pH 7.40 (10 mM HEPES), 10 mV/s, 25 °C, I = 0.1 M (nBu4NPF6)
Protocol: Cyclic voltammograms of TSCs derivatives and their Cu(II) complexes at 25.0 ± 0.1 °C were recorded. nBu4NPF6 was used as a supporting electrolyte, and measurements were performed at pH 7.4. The complexes were obtained by mixing the ligand dissolved in DMSO with aqueous solution of CuCl2 in 1:1 ratio. The final concentration of stock was 1 mM. Measurements were performed on a conventional three-electrode system under argon atmosphere using an Autolab PGSTAT 204 potentiostat/galvanostat monitored with Metrohm’s Nova software. Samples were purged for 10 min with argon before recording the cyclic voltammograms. Platinum electrode was used as the working and auxiliary electrode and Ag/AgCl/3 M KCl as the reference electrode. The electrochemical system was calibrated with an aqueous solution of K3[Fe(CN)6] (E1/2 = +0.458 V vs. NHE). Redox potentials were obtained at 10 mV/s scan rate in the range of −1.3 to +0.8 V.

[2] = DPPH free radical scavenging assay; details: for TEAC (Trolox equivalent antioxidant capacity): DPPH assay in ethanol; for TEAC (Trolox equivalent antioxidant capacity) / % Scavenging Effect: 25 °C; for % Scavenging Effect: DPPH:compound = 1:1 ratio after 30 min, ethanol; for IC50: in ethanol, T = 25 °C, cDPPH = 50 µM, ccompound = 5−50 µM
Protocol: The DPPH (Sigma-Aldrich) free radical scavenging capacity was studied at 25.0 ± 0.1 °C on an Agilent Cary 3500 spectrophotometer with tightly closed tandem cuvette according to our approach with some modifications. The stock solution of DPPH (100 µM) was prepared in ethanol, and 0.5 mL of this solution was added to one pocket of the cuvette and 0.5 mL of the tested compound in different concentrations in ethanol was added to another. The final concentration of the studied compounds was in the range 5–50 µM, where for DPPH concentration, it was always 50 µM. A standard compound Trolox (Sigma-Aldrich) was used as a positive control. The percentage of the antioxidant activity (AA), IC50 values (the concentration of compound at which it reduced 50% of DPPH) and Trolox equivalent antioxidant capacity (TEAC) were calculated.

[3] = tested on: A549, MCF-7, MCF-7 KCR and DU-145 cells; assay: γH2AX immunostaining (DNA double-strand breaks); format: cell-based, human; details: 20 µM, 3 h
Protocol: In order to determine the degree of DNA damage induced by the treatments, DNA double-strand breaks were visualized by γH2AX immunostaining. For this, 1 × 10^5 cells/well were seeded onto coverslips in 24-well plates. […] Then, cells were fixed with 4% formaldehyde (Molar Chemicals, Halásztelek, Hungary), permeabilized with 0.3% Triton-X-100 (Calbiochem, Merck Millipore, Darmstadt, Germany) and were blocked using 5% bovine serum albumin (BSA) (Sigma-Aldrich, St. Louis, MO, USA). Then, the samples were incubated with anti-γH2AX antibody (Thermo Fisher Scientific, Waltham, MA, USA) in 1:300 dilution followed by Alexa 488 fluorophore-conjugated goat anti-mouse secondary antibody (Abcam, Cambridge, UK) in 1:600 dilution. The fluorescence intensity of the stained samples was detected by an Olympus FV10i confocal microscope.

[4] = format: physicochemical; details: for logβ [CuLH−1] / logβ [CuL]+: Cu(II) complex of the named ligand, 30% (v/v) DMSO/H2O, T = 25.0 °C, I = 0.1 M (KCl); for pCu5.0: calculated at pH 5.0, cCu(II) = 20 µM; for pCu5.0 / pCu6.0 / pCu7.4: cligand = 20 µM; for pCu6.0: estimated at pH 6.0, cCu(II) = 20 µM; for pCu7.4: estimated at pH 7.4, cCu(II) = 20 µM
Protocol: (§4) An Orion 710A pH-meter equipped with a Metrohm combined electrode (type 6.0234.100) and a Metrohm 665 Dosimat burette were used for the UV–vis titrations at 25.0 ± 0.1 °C. Ionic strength of 0.10 M (KCl) was used to keep the activity coefficients constant. The titrations were performed with carbonate-free KOH solution of known concentration (0.10 M) with 30% (v/v) DMSO content. […] The average water ionization constant (pKw) is 14.54 ± 0.05 in the 30% (v/v) DMSO/H2O mixture. Argon was always passed over the solutions during the titrations. An Agilent Cary 8454 diode array spectrophotometer was used to record the UV–vis spectra at an interval of 200–800 nm. The path length was 2 cm. Spectrophotometric titrations were performed using a 0.1 M KOH titrant solution with 30% (v/v) DMSO on samples with 30% (v/v) DMSO containing HCl, KCl and the ligand at 20 μM concentration in the pH range 2.0–12.5 in the absence or in the presence of 1 or 0.5 equiv. Cu(II) ions. Proton dissociation constants (Ka) of the TSC ligands, the overall stability constants (β) of the Cu(II) complexes and the UV–vis spectra of the individual species were calculated by the computer program PSEQUAD [41] as was done in our previous works.

[5] = direct redox reaction of the Cu(II) complexes with GSH (UV–vis, anaerobic); format: physicochemical; details: Cu(II) complex (25 µM) of the named ligand with GSH (1.25 mM), pH 7.4, anaerobic, 30% (v/v) DMSO/H2O, 25.0 °C
Protocol: The redox reaction of the Cu(II) complexes with GSH and ascorbic acid was studied at 25.0 ± 0.1 °C, at pH 7.40 (10 mM HEPES with 0.1 M KCl) on an Agilent Cary 8454 diode array spectrophotometer using a special, tightly closed tandem cuvette (Hellma Tandem Cell, 238-QS). The complex and the reducing agent were separated until the reaction was triggered. Both isolated pockets of the tandem cuvette were completely deoxygenated by bubbling argon for 10 min before mixing the reactants. Spectra were recorded before and then immediately after the mixing, and changes were followed till no further absorbance change was observed. The stock solutions of the reducing agents and the complexes were freshly prepared every day.
During the calculations, the absorbance (A)−time (t) curves were fitted and analyzed at the λmax of the complex. (A0 − Afinal) × e ^(−a×t) + Afinal equation was used where A0, Afinal and a parameters were refined and accepted at the minimal value of the weighted sum of squared residuals (difference between the measured and calculated absorbance values) at the given wavelength. Then observed rate constants (kobs) of the redox reaction were obtained from the data points of the simulated absorbance–time curves as the slope of the ln(A/A0) versus t plots.

physchem = format: physicochemical
Protocol: as §4

[6] = Homo sapiens, MCF7, 24 h incubation time
[7] = Staphylococcus aureus, ATCC25928
[8] = Enterococcus faecalis, ATCC29212

Structure (SMILES)	IC50 (MCF-7)	IC50 (DU-145)	IC50 (A549)	IC50 (MCF-7 KCR; 24 h incubation time)	MIC (S. aureus ATCC 25928)	MIC (E. faecalis ATCC 29212)	formal potential E’ vs. Ag/AgCl/3M KCl [1]	TEAC (Trolox equivalent antioxidant capacity) [2]	% Scavenging Effect [2]	IC50 [2]	IC50 (MCF-7; Homo sapiens, MCF7)	IC50 (DU-145; Homo sapiens)	IC50 (A549; Homo sapiens)	IC50 (MCF-7 KCR; [6])	pKa [CuL]+ [4]	logβ [CuLH−1] [4]	logβ [CuL]+ [4]	pCu5.0 [4]	pCu6.0 [4]	pCu7.4 [4]	other results
CN(C)C([S-])=N/N=C/c1cc2c(cc1[O-])CC[C@@H]1[C@@H]2CC[C@]2(C)[C@@H](O)CC[C@@H]12.O.[Cu+2] [Cu(II)-Me2-estradiol-TSC]	10.1 ± 1.36 µM	7.85 ± 1.08 µM	3.44 ± 1.02 µM	> 20 µM	0.78 µM	12.5 µM	+0.33 V	0.7	40.4%	16.4 µM											
[Cl][Cu][Cl] [CuCl2, reference compound]	> 20 µM	> 20 µM	> 20 µM	> 20 µM	>100 µM	>100 µM															effect on cell viability (in words) (MCF-7; up to 20 µM, 24 h): No toxic effect; effect on cell viability (in words) (DU-145; up to 20 µM, 24 h): No toxic effect; effect on cell viability (in words) (A549; up to 20 µM, 24 h): No toxic effect; effect on cell viability (in words) (MCF-7 KCR; up to 20 µM, 24 h): No toxic effect; DNA double-strand breaks (γH2AX) vs untreated control cells [3]: None of these treatments caused a higher degree of DNA damage
CN(C)C(=S)NN=Cc1cc2c(cc1O)CC[C@@H]1[C@@H]2CC[C@]2(C)[C@@H](O)CC[C@@H]12 [Me2-estradiol-TSC, 2-((3,17 β-Dihydroxy-estra-1,3,5(10)-triene-2-yl)methylene)-N,N-dimethylhydrazine-1-carbothioamide]								0.9	100%	13.6 µM	> 20 µM	> 20 µM	> 20 µM	> 20 µM	3.85	10.11 ± 0.03	13.96 ± 0.03	8.0	9.6	12.4	MIC (S. aureus ATCC 25928; [7]): > 100 µM; MIC (E. faecalis ATCC 29212; [8]): > 100 µM; kobs [5]: 0.31 ± 0.06 min⁻¹; pKa (physchem): 9.2 ± 0.03
CNC([S-])=N/N=C/c1cc2c(cc1[O-])CC[C@@H]1[C@@H]2CC[C@]2(C)[C@@H](O)CC[C@@H]12.O.[Cu+2] [Cu(II)-Me-estradiol-TSC]	16.7 ± 1.66 µM	15.8 ± 1.08 µM	3.71 ± 1.02 µM	> 20 µM	6.25 µM	50 µM	+0.29 V	0.6	33.6%	20.3 µM											
CNC(=S)NN=Cc1cc2c(cc1O)CC[C@@H]1[C@@H]2CC[C@]2(C)[C@@H](O)CC[C@@H]12 [Me-estradiol-TSC, 2-((3,17 β-Dihydroxy-estra-1,3,5(10)-triene-2-yl)Methylene)-N-methylhydrazine-1-carbothioamide]								0.8	31.0%	15.4 µM	> 20 µM	> 20 µM	15.8 ± 1.03 µM	> 20 µM	4.08	9.59 ± 0.03	13.68 ± 0.03	7.6	9.1	11.8	MIC (S. aureus ATCC 25928; [7]): > 100 µM; MIC (E. faecalis ATCC 29212; [8]): > 100 µM; kobs [5]: 0.22 ± 0.02 min⁻¹; pKa (physchem): 9.28 ± 0.03

From paper PMC9822434, “Estradiol-Based Salicylaldehyde (Thio)Semicarbazones and Their Copper Complexes with Anticancer, Antibacterial and Antioxidant Activities” (Molecules, 2022)
